In ChEMBL document CHEMBL1201862, “PubChem BioAssay data set” (2004):
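Five compound concentrations were applied to cells in 96-well plates for 48 hours; endpoints were derived by simple linear interpolation of the resulting dose-response curve. GI50 marks 50% less growth.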 Active and inactive are the calls of the source. Cut-off read from the data, not from the text of the source: active = GI50 up to about 1.1 µM and inactive = higher.

Columns and labels:
Experiment in all cases: NCI tumour cell line growth inhibition, 48 h
[1] = tested on: RXF 393
[2] = tested on: SR
[3] = tested on: ACHN
[4] = tested on: IGROV-1
[5] = tested on: SW-620
[6] = tested on: MCF7
[7] = tested on: M14
[8] = tested on: CCRF-CEM
[9] = tested on: NCI-H460
[10] = tested on: TK-10
[11] = tested on: T47D
[12] = tested on: NCI/ADR-RES
[13] = tested on: Malme-3M
[14] = tested on: MDA-N
[15] = tested on: NCI-H23
[16] = tested on: SF-539
[17] = tested on: MDA-MB-435
[18] = tested on: HL-60
[19] = tested on: COLO 205
[20] = tested on: LOX IMVI
[21] = tested on: NCI-H522
[22] = tested on: 786-0
[23] = tested on: UACC-62
[24] = tested on: OVCAR-5
[25] = tested on: OVCAR-8
[26] = tested on: U-251
[27] = tested on: A549
[28] = tested on: Hs-578T
[29] = tested on: PC-3
[30] = tested on: KM12
[31] = tested on: SK-OV-3
[32] = tested on: RPMI-8226
[33] = tested on: MDA-MB-231
[34] = tested on: OVCAR-4
[35] = tested on: BT-549
[36] = tested on: SK-MEL-2
[37] = tested on: SF-268
[38] = tested on: DU-145
[39] = tested on: SNB-19
[40] = tested on: HT-29
[41] = tested on: A498
[42] = tested on: SK-MEL-5
[43] = tested on: HCC 2998
[44] = tested on: CAKI-1
[45] = tested on: UO-31
[46] = tested on: SN12C
[47] = tested on: SF-295
[48] = tested on: NCI-H226
[49] = tested on: SK-MEL-28
[50] = tested on: HCT-116
[51] = tested on: EKVX
[52] = tested on: HCT-15
[53] = tested on: HOP-62
[54] = tested on: UACC-257
[55] = tested on: SNB-75
[56] = tested on: MOLT-4
[57] = tested on: OVCAR-3

With COc1ccc(-c2c3ccccc3c(-c3ccc(OCCBr)cc3)c3ccccc23)cc1 the GI50 [1] was > 100 µM (inactive), the GI50 [2] was > 100 µM (inactive) and the GI50 [3] was > 100 µM (inactive). For the same compound, the GI50 [4] was > 100 µM (inactive), the GI50 [5] was > 100 µM (inactive) and the GI50 [6] was > 100 µM (inactive). The GI50 [7] was > 100 µM (inactive), the GI50 [8] was > 100 µM (inactive) and the GI50 [9] was > 100 µM (inactive). For the same compound, the GI50 [10] was > 100 µM (inactive), the GI50 [11] was > 100 µM (inactive) and the GI50 [12] was > 100 µM (inactive). The GI50 [13] was > 100 µM (inactive), the GI50 [14] was > 100 µM (inactive) and the GI50 [15] was > 100 µM (inactive). For the same compound, the GI50 [16] was > 100 µM (inactive), the GI50 [17] was > 100 µM (inactive) and the GI50 [18] was > 100 µM (inactive). For the same compound, the GI50 [19] was > 100 µM (inactive), the GI50 [20] was > 100 µM (inactive) and the GI50 [21] was > 100 µM (inactive). The GI50 [22] was > 100 µM (inactive), the GI50 [23] was > 100 µM (inactive) and the GI50 [24] was > 100 µM (inactive). The GI50 [25] was > 100 µM (inactive), the GI50 [26] was > 100 µM (inactive) and the GI50 [27] was > 100 µM (inactive). For the same compound, the GI50 [28] was > 100 µM (inactive), the GI50 [29] was > 100 µM (inactive) and the GI50 [30] was > 100 µM (inactive). The GI50 [31] was > 100 µM (inactive), the GI50 [32] was > 100 µM (inactive) and the GI50 [33] was > 100 µM (inactive). The GI50 [34] was > 100 µM (inactive), the GI50 [35] was > 100 µM (inactive) and the GI50 [36] was > 100 µM (inactive). The GI50 [37] was > 100 µM (inactive), the GI50 [38] was > 100 µM (inactive) and the GI50 [39] was > 100 µM (inactive). For the same compound, the GI50 [40] was > 100 µM (inactive), the GI50 [41] was > 100 µM (inactive) and the GI50 [42] was > 100 µM (inactive). The GI50 [43] was > 100 µM (inactive), the GI50 [44] was > 100 µM (inactive) and the GI50 [45] was 0.102 µM (active). The GI50 [46] was > 100 µM (inactive), the GI50 [47] was > 100 µM (inactive) and the GI50 [48] was > 100 µM (inactive). For the same compound, the GI50 [49] was > 100 µM (inactive), the GI50 [50] was > 100 µM (inactive) and the GI50 [51] was > 100 µM (inactive). The GI50 [52] was over 100 µM, the GI50 [53] was > 100 µM (inactive) and the GI50 [54] was > 100 µM (inactive). The GI50 [55] was 43.9 µM (inactive), the GI50 [56] was > 100 µM (inactive) and the GI50 [57] was > 100 µM (inactive).
